This is an account of results in the NIST ThermoML archive (doi:10.1007/s10765-010-0768-y).

Numbers after ± are expanded uncertainties.

The conditions of data set [1]: 101 kPa, Liquid, Pycnometric method.
Data set [2] can be described thus: xn = mol fraction of the nth substance listed. Particulars: 101 kPa, Liquid, Pycnometric method, x2 = 0.

With `Cc1ccccc1C` [1,2-dimethylbenzene], the mass density (usually mass per unit of volume) in data set [1] (288.15 K) was determined as 884.09 ± 0.22 kg/m3; in data set [1] (293.15 K), 879.83 ± 0.21 kg/m3; in data set [1] (298.15 K) it was 875.57 ± 0.22 kg/m3; in data set [1] (303.15 K) it was 871.31 ± 0.23 kg/m3; in data set [1] (308.15 K), 867.05 ± 0.24 kg/m3; in data set [1] (313.15 K) it was 862.79 ± 0.25 kg/m3. For the same compound, the mass density in data set [1] (318.15 K) turned out to be 858.53 ± 0.26 kg/m3.
Consider `Cc1ccccc1C` [1,2-dimethylbenzene] + C=CC(=O)OCCCC, for which the mass density in data set [2] (288.15 K) worked out at 884.09 ± 0.22 kg/m3; in data set [2] (293.15 K), 879.83 ± 0.21 kg/m3; in data set [2] (298.15 K), 875.57 ± 0.22 kg/m3; in data set [2] (303.15 K), 871.31 ± 0.23 kg/m3; in data set [2] (308.15 K), 867.05 ± 0.24 kg/m3; in data set [2] (313.15 K), 862.79 ± 0.25 kg/m3. Moreover, the mass density in data set [2] (318.15 K) was determined as 858.53 ± 0.26 kg/m3.
Turning to `Cc1cc(C)cc(C)c1` [1,3,5-trimethylbenzene], the mass density turned out to be 869.28 ± 0.24 kg/m3 in data set [1] (288.15 K); 865.37 ± 0.23 kg/m3 in data set [1] (293.15 K); 861.45 ± 0.24 kg/m3 in data set [1] (298.15 K); 857.54 ± 0.25 kg/m3 in data set [1] (303.15 K); 853.63 ± 0.26 kg/m3 in data set [1] (308.15 K); 849.71 ± 0.27 kg/m3 in data set [1] (313.15 K). Further, the mass density in data set [1] (318.15 K) amounted to 845.8 ± 0.28 kg/m3.
In the case of `Cc1cc(C)cc(C)c1` [1,3,5-trimethylbenzene] + C=CC(=O)OCCCC, the mass density was 869.28 ± 0.24 kg/m3 in data set [2] (288.15 K); 865.37 ± 0.23 kg/m3 in data set [2] (293.15 K); 861.45 ± 0.24 kg/m3 in data set [2] (298.15 K); 857.54 ± 0.25 kg/m3 in data set [2] (303.15 K); 853.63 ± 0.26 kg/m3 in data set [2] (308.15 K); 849.71 ± 0.27 kg/m3 in data set [2] (313.15 K). The mass density in data set [2] (318.15 K) is 845.8 ± 0.28 kg/m3.
On to `Cc1cccc(C)c1` [1,3-dimethylbenzene], for which the mass density in data set [1] (288.15 K) is on record as 868.59 ± 0.22 kg/m3; in data set [1] (293.15 K), 864.31 ± 0.21 kg/m3; in data set [1] (298.15 K) it was 860.02 ± 0.22 kg/m3; in data set [1] (303.15 K) it was 855.74 ± 0.23 kg/m3; in data set [1] (308.15 K) it was 851.45 ± 0.24 kg/m3; in data set [1] (313.15 K) it was 847.17 ± 0.25 kg/m3. The mass density in data set [1] (318.15 K) was 842.88 ± 0.26 kg/m3.
Regarding `Cc1cccc(C)c1` [1,3-dimethylbenzene] + C=CC(=O)OCCCC, the mass density stood at 868.59 ± 0.22 kg/m3 in data set [2] (288.15 K); 864.31 ± 0.21 kg/m3 in data set [2] (293.15 K); 860.02 ± 0.22 kg/m3 in data set [2] (298.15 K); 855.74 ± 0.23 kg/m3 in data set [2] (303.15 K); 851.45 ± 0.24 kg/m3 in data set [2] (308.15 K); 847.17 ± 0.25 kg/m3 in data set [2] (313.15 K). Moreover, the mass density in data set [2] (318.15 K) was determined as 842.88 ± 0.26 kg/m3.
As to `Cc1ccc(C)cc1` [1,4-dimethylbenzene], the mass density was determined as 865.52 ± 0.22 kg/m3 in data set [1] (288.15 K); 861.17 ± 0.2 kg/m3 in data set [1] (293.15 K); 856.82 ± 0.21 kg/m3 in data set [1] (298.15 K); 852.47 ± 0.22 kg/m3 in data set [1] (303.15 K); 848.12 ± 0.23 kg/m3 in data set [1] (308.15 K); 843.77 ± 0.24 kg/m3 in data set [1] (313.15 K). In addition, in data set [1] (318.15 K), the mass density was 839.42 ± 0.25 kg/m3.
Take `Cc1ccc(C)cc1` [1,4-dimethylbenzene] + C=CC(=O)OCCCC: the mass density is 865.52 ± 0.22 kg/m3 in data set [2] (288.15 K); 861.17 ± 0.2 kg/m3 in data set [2] (293.15 K); 856.82 ± 0.21 kg/m3 in data set [2] (298.15 K); 852.47 ± 0.22 kg/m3 in data set [2] (303.15 K); 848.12 ± 0.23 kg/m3 in data set [2] (308.15 K); 843.77 ± 0.24 kg/m3 in data set [2] (313.15 K). The mass density in data set [2] (318.15 K) was 839.42 ± 0.25 kg/m3.
As to `c1ccccc1` [benzene], the mass density in data set [1] (288.15 K) was determined as 884.3 ± 0.22 kg/m3; in data set [1] (293.15 K) it was 878.95 ± 0.2 kg/m3; in data set [1] (298.15 K) it was 873.61 ± 0.21 kg/m3; in data set [1] (303.15 K) it was 868.26 ± 0.22 kg/m3; in data set [1] (308.15 K) it was 862.9 ± 0.23 kg/m3; in data set [1] (313.15 K) it was 857.56 ± 0.24 kg/m3. Also, the mass density in data set [1] (318.15 K) was 852.23 ± 0.25 kg/m3.
In the case of `c1ccccc1` [benzene] + C=CC(=O)OCCCC, the mass density came out at 884.3 ± 0.22 kg/m3 in data set [2] (288.15 K); 878.95 ± 0.2 kg/m3 in data set [2] (293.15 K); 873.61 ± 0.21 kg/m3 in data set [2] (298.15 K); 868.26 ± 0.22 kg/m3 in data set [2] (303.15 K); 862.9 ± 0.23 kg/m3 in data set [2] (308.15 K); 857.56 ± 0.24 kg/m3 in data set [2] (313.15 K). Further, the mass density in data set [2] (318.15 K) was 852.23 ± 0.25 kg/m3.
For the compound `C=CC(=O)OCCCC` [butyl 2-propenoate], the mass density in data set [1] (288.15 K) is 903.6 ± 0.27 kg/m3; in data set [1] (293.15 K), 898.85 ± 0.26 kg/m3; in data set [1] (298.15 K), 894.1 ± 0.27 kg/m3; in data set [1] (303.15 K), 889.35 ± 0.28 kg/m3; in data set [1] (308.15 K) it was 884.6 ± 0.29 kg/m3; in data set [1] (313.15 K) it was 879.85 ± 0.3 kg/m3. The mass density in data set [1] (318.15 K) was 875.1 ± 0.31 kg/m3.
As for `Cc1ccccc1` [toluene], the mass density turned out to be 871.79 ± 0.21 kg/m3 in data set [1] (288.15 K); 867.08 ± 0.2 kg/m3 in data set [1] (293.15 K); 862.36 ± 0.21 kg/m3 in data set [1] (298.15 K); 857.64 ± 0.22 kg/m3 in data set [1] (303.15 K); 852.93 ± 0.23 kg/m3 in data set [1] (308.15 K); 848.21 ± 0.24 kg/m3 in data set [1] (313.15 K). Also, the mass density in data set [1] (318.15 K) was determined as 843.49 ± 0.25 kg/m3.
Consider `Cc1ccccc1` [toluene] + C=CC(=O)OCCCC, for which the mass density is recorded as 871.79 ± 0.21 kg/m3 in data set [2] (288.15 K); 867.08 ± 0.2 kg/m3 in data set [2] (293.15 K); 862.36 ± 0.21 kg/m3 in data set [2] (298.15 K); 857.64 ± 0.22 kg/m3 in data set [2] (303.15 K); 852.93 ± 0.23 kg/m3 in data set [2] (308.15 K); 848.21 ± 0.24 kg/m3 in data set [2] (313.15 K). Moreover, the mass density in data set [2] (318.15 K) was 843.49 ± 0.25 kg/m3.
